In patent publication US20030212107A1, “R-reliprodil for treating glaucoma” (priority 2002, published 2003):
“Also recorded” adds a separate entry of the source.

Tests used:
[1] = test system: NMDA-induced firing rate of the lateral vestibular nucleus; assay: NMDA-induced firing rate of the lateral vestibular nucleus in vivo
[2] = test system: sodium channels; assay: Antagonism at sodium channels
Source text: (§1) The role of these pharmacological activities in the neuroprotective efficacy has not been established for this drug.

[3] = following some doses in humans; cited from earlier work
[4] = cat, in vivo
Protocol: Eliprodil and its enantiomers were evaluated for their potential for prolonging QTc by determining their dose-related effects on cardiac electrical activity. Two different experimental models were utilized for these studies: (1) Action potential duration in piglet Purkinje fibers from the heart and (2) Electrocardiographic parameters in pentobarbital anesthetized cats.
Eliprodil and its two enantiomers were also evaluated for hemodynamic and electrocardiographic parameters in pentobarbital-anesthetized cats. […] Compounds were administered at increasing doses from 0.01 to 3 mg/kg as a five-minute intravenous infusion every 20 minutes.

[5] = test system: voltage operated calcium channels of the L, N and P type; assay: Antagonism at voltage operated calcium channels
Source text: as §1

[6] = test system: piglet Purkinje fibre; details: for Concentration with statistically significant prolongation of APD90: pig
Protocol: Eliprodil and its two enantiomers induced concentration-dependent prolongation of the duration of the action potential of the piglet Purkinje fibre, particularly at the 0.25 Hz frequency. Based on action potential duration at 90% repolarization (APD90), statistically significant prolongation was evident at R(−) eliprodil concentrations of 100 nM and higher, but at S(+) eliprodil concentrations of 30 nM and higher. With high concentrations, APD90 decreased with both compounds.

[7] = test system: hippocampal slices; assay: Recovery of synaptic transmission after hypoxia in hippocampal slices in vitro; details: for Recovery of excitatory post synaptic potentials following hypoxia (efficacy): comparable dose, 15 minute hypoxia, recovery assessed 60 minutes after reoxygenation
Protocol: Dose-Response Relations Comparing the Efficacy of Racemic (R/S)-Eliprodil (Open Circles), R-Eliprodil (Closed Circles) and Memantine (Closed Diamonds) for their Ability to Improve Recovery of Synaptic Transmission Following a 15 Minute Period of Hypoxia in Hippocampal Slices in vitro (FIG. 2). […] Briefly, hippocampal slices were prepared acutely the same day as the experiment, and each compound was bath applied 30 minutes prior to delivery of the 15 minute hypoxic insult. Recovery of evoked […] expressed as percent of the initial, pre-hypoxia epsp maximum slope, with this percent recovery assessed 60 minutes after reoxygenation.

[8] = test system: cultured rat retinal ganglion cells; assay: Glutamate-induced rat retinal ganglion cell death; format: cell-based; details: 10 nM for 30 minutes, then 100 μM glutamate; viable cells counted after 3 days; FIG. 1
Source text: Retinal ganglion cells were selected as they represent the retinal cell that degenerates in glaucoma. MK-801 was selected as a reference NMDA antagonist.
Isolation of rat retinal ganglion cells and assessment of viability in the absence and presence of glutamate was described in Pang, et al., “Protection by Eliprodil Against Excitotoxicity in Cultured Rat Retinal Ganglion Cells”, Investigative Ophthalmology & Visual Science, Vol. 40(6), pp. 1170-1176, May, 1999. Briefly, isolated cultured rat retinal ganglion cells were treated with racemic (R/S) eliprodil (10 nM), R-eliprodil (10 nM), or S-eliprodil (10 nM) for thirty (30) minutes followed by the addition of 100 μM glutamate. Survival was determined by counting viable cells after an incubation period of three (3) days. Survival with vehicle alone defines 100%. […] S-eliprodil was ineffective.

[9] = molecular target: T1, 5-HT1A (Homo sapiens, UniProt P08908); assay: Binding studies; details: 5-HT1A binding site
T1 sequence (P08908 1-422): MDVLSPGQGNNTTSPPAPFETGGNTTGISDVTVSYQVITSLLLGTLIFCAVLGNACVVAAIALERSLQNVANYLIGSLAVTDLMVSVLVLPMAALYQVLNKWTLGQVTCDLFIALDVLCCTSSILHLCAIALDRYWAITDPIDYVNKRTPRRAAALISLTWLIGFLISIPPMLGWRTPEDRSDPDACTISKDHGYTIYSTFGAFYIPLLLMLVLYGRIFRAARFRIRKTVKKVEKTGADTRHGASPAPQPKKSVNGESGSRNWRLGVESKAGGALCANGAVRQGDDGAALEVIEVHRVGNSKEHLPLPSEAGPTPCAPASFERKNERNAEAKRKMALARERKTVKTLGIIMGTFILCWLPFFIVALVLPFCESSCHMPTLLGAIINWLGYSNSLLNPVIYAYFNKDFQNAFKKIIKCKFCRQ
Source text: as §1

[10] = molecular target: 5-HT7 (Homo sapiens, UniProt P34969); assay: Binding studies; details: 5-HT7 binding site
Sequence of 5-HT7 (P34969 whole entry, species assumed): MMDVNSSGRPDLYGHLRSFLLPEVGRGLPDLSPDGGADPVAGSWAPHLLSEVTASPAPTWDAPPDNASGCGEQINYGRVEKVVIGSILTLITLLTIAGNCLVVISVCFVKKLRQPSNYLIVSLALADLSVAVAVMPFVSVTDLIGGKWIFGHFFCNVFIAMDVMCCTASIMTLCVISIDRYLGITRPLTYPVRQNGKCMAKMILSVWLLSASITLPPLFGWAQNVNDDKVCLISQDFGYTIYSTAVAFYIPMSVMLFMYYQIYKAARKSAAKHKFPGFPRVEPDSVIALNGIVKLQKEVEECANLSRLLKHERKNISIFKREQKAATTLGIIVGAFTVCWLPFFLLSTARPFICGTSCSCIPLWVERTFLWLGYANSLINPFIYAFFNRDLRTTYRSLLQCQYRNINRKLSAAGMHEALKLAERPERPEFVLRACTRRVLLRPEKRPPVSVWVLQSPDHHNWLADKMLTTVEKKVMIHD
Source text: as §1

[11] = molecular target: 5-HT2A (Homo sapiens, UniProt P28223); assay: Binding studies; details: 5-HT2A binding site
Sequence of 5-HT2A (P28223 whole entry, species assumed): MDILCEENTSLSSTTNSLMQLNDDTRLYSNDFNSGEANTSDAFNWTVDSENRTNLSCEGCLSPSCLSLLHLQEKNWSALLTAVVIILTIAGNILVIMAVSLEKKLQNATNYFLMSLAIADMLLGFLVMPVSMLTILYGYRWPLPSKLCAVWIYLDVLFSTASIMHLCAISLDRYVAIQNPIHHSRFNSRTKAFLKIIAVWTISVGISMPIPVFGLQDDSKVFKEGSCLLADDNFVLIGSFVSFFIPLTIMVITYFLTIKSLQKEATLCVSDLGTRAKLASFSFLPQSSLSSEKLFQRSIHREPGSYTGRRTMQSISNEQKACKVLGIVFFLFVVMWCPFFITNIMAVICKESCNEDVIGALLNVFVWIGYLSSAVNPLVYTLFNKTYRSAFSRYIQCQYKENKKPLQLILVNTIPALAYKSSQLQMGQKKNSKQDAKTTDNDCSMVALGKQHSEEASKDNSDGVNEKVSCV
Source text: as §1

[12] = molecular target: histamine H1 (Homo sapiens, UniProt P35367); assay: Binding studies; details: histamine H1 binding site
Sequence of histamine H1 (P35367 whole entry): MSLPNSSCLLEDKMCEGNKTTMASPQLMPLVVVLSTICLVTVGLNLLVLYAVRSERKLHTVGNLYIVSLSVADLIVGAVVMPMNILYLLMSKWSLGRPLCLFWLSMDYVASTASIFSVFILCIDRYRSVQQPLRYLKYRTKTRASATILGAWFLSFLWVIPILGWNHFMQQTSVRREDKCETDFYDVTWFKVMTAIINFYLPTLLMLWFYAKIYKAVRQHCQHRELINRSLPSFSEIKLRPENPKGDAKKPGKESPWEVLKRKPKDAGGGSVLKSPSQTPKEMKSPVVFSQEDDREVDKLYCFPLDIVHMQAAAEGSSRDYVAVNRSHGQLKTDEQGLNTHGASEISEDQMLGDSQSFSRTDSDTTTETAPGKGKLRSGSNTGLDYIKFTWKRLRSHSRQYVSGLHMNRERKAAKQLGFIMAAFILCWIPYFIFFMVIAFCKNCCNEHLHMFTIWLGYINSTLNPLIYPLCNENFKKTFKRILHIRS
Source text: as §1

[13] = molecular target: histamine H2 (Homo sapiens, UniProt P25021); assay: Binding studies; details: histamine H2 binding site
Sequence of histamine H2 (P25021 whole entry): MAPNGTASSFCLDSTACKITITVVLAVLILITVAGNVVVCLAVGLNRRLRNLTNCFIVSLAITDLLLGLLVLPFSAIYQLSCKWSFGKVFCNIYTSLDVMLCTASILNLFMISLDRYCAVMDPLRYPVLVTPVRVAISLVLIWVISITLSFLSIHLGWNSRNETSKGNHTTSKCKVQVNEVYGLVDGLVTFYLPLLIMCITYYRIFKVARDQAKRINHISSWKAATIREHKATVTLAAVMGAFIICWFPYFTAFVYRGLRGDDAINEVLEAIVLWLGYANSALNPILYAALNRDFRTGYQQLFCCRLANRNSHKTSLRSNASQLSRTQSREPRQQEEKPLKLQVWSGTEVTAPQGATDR
Source text: as §1

[14] = test system: α1-adrenergic; assay: Binding studies; details: α1-adrenergic binding site
Source text: as §1

[15] = molecular target: 5-HT uptake (Homo sapiens, UniProt P31645); assay: Binding studies; details: 5-HT uptake binding site
Sequence of 5-HT uptake (P31645 whole entry): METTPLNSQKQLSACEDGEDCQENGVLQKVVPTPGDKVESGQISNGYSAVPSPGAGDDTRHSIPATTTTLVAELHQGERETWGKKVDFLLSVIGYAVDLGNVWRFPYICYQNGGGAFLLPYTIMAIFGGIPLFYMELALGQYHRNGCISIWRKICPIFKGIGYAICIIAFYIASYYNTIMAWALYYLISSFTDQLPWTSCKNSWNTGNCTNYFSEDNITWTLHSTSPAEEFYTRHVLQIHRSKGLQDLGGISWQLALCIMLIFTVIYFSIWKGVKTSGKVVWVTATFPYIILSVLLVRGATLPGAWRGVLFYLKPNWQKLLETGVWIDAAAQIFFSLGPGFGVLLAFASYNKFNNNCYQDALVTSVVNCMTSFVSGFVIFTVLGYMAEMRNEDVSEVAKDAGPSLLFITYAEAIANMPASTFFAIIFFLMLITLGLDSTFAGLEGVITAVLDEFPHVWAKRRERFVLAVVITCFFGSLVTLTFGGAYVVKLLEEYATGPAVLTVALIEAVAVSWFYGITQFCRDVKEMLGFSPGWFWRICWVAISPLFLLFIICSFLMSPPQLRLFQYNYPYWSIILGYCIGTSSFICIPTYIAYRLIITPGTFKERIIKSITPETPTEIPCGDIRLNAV
Source text: as §1

[16] = molecular target: β3-adrenergic (Homo sapiens, UniProt P13945); assay: Binding studies; details: β3-adrenergic binding site
Sequence of β3-adrenergic (P13945 whole entry): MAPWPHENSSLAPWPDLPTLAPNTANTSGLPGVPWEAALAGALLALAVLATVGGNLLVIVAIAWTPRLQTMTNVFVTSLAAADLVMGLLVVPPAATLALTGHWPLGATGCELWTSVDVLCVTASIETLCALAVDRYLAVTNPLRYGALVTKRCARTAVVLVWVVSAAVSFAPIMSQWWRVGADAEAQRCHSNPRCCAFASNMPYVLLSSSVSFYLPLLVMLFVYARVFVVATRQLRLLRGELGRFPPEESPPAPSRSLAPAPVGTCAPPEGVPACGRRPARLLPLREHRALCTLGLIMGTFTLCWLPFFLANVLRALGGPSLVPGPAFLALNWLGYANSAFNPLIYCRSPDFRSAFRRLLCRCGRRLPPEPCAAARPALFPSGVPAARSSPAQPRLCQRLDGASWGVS
Source text: as §1

[17] = molecular target: NMDA receptor (Homo sapiens, UniProt Q05586+Q13224); assay: biochemical
Sequence of NMDA receptor (Q13224 27-1484, other chains not shown): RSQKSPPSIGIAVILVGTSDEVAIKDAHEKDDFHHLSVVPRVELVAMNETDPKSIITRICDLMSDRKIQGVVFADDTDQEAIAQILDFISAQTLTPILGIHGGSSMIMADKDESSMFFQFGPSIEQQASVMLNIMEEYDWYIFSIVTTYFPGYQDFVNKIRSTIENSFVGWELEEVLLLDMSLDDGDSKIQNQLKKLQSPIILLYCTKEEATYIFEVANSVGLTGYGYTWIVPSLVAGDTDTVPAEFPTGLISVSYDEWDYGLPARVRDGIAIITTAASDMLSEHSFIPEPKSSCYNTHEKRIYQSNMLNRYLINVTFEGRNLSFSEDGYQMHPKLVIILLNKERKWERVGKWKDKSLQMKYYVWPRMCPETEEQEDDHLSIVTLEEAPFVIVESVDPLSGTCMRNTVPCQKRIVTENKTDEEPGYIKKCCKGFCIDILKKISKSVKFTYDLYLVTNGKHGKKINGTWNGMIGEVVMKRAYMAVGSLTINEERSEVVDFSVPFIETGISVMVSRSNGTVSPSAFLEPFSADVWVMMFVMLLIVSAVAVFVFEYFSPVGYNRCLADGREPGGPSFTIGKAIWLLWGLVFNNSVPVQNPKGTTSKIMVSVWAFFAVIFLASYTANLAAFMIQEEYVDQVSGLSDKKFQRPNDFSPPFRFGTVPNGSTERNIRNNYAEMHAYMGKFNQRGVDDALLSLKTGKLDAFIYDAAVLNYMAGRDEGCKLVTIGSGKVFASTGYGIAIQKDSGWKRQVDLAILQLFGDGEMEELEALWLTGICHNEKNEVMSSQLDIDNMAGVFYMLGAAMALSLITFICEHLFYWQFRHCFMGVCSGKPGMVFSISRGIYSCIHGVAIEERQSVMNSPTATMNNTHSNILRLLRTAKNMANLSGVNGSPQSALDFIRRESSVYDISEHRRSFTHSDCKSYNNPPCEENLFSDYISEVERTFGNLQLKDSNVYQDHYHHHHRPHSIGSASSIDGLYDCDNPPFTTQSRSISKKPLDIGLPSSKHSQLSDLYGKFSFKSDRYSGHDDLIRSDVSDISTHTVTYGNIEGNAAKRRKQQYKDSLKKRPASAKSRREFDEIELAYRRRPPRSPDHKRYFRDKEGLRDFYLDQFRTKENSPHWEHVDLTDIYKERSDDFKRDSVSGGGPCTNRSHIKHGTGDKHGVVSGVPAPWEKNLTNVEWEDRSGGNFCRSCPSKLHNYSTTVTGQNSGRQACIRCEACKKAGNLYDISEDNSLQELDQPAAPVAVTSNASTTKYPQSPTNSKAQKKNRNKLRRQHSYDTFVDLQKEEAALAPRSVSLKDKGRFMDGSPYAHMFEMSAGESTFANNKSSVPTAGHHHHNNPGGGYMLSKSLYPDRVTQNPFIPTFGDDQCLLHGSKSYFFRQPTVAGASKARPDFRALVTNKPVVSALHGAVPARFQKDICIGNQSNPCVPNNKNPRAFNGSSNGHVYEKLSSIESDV

Ki [17]	Concentration with statistically significant prolongation of APD90 [6]	SMILES	Inhibition of NMDA-induced firing rate of the lateral vestibular nucleus [1]	Threshold Dose, Heart Rate Decrease [4]	Threshold Dose, Mean Blood Pressure Decrease [4]	Threshold Dose, QTc Prolongation [4]	Maximum effect on APD90 [6]	Recovery of excitatory post synaptic potentials following hypoxia (efficacy) [7]	Neuroprotective effect on glutamate-induced retinal ganglion cell death (survival) [8]	other results
		OC(CN1CCC(Cc2ccc(F)cc2)CC1)c1ccc(Cl)cc1 (racemic) [Eliprodil]	strongly inhibit	0.1 mg/kg	1.0 mg/kg	0.03 mg/kg	equal to that of S(+) eliprodil	less effective	marked neuroprotective activity	Antagonism at sodium channels [2]: shows antagonism; QTc prolongation [3]: asymptomatic QTc prolongation; Antagonism at voltage operated calcium channels [5]: shows antagonism; Effect on APD90 at low concentrations [6]: intermediate between the two enantiomers; Affinity [9]: sub-micromolar; Affinity [10]: sub-micromolar; Affinity [11]: sub-micromolar; Affinity [12]: sub-micromolar; Affinity [13]: sub-micromolar; Affinity [14]: sub-micromolar; Affinity [15]: sub-micromolar; Affinity [16]: sub-micromolar
0.2 µM	≥ 100 nM	O[C@@H](CN1CCC(Cc2ccc(F)cc2)CC1)c1ccc(Cl)cc1 [R-eliprodil, R-α-(4-chlorophenyl)-4-(4-fluorophenylmethyl)-1-peperidineethanol]	strongly inhibit	0.3 mg/kg	1.0 mg/kg	0.1 mg/kg	less than is that seen with S(+) eliprodil	substantial recovery; also recorded: more efficacious than either racemic or S-eliprodil	marked neuroprotective activity; also recorded: as efficacious as a protectant as racemic eliprodil	Plasma level ([4]; iv, 0.1 mg/kg): 34.9 ± 2.8 ng/mL; Potency (EC50) for recovery of synaptic transmission, compared with racemic-eliprodil or memantine ([7]; p<0.05, Student's t-test, FIG. 2): statistically significantly more potent
10 µM	≥ 30 nM	O[C@H](CN1CCC(Cc2ccc(F)cc2)CC1)c1ccc(Cl)cc1 [S-eliprodil]	almost inactive at the highest dose tested	0.1 mg/kg	1.0 mg/kg	0.01 mg/kg		less effective	ineffective	
